Experimental data taken from patent publication US11466006B2, “Dual selective PI3 delta and gamma kinase inhibitors” (Rhizen Pharmaceuticals SA, priority 2013, dated 2022).

Tests used:
[1] = tested on: caspase-3 activity; test: Apoptosis in leukemic cell lines (in-situ Caspase 3 kit); assay type: cell-based; conditions: MOLT-4, Jurkat, CCRF-CEM, Hut-78 & HuT-102; 24 hrs
Method: Apoptosis in leukemic cells was determined using an in-situ Caspase 3 kit (Millipore, US) as outlined below: • Seed leukemic cells—at a density of 1×10^6 cells/well in a 6 well plate • Add test compound/DMSO at desired concentrations • Incubate the plate for 24 hrs at 37° C. in 5% CO2 incubator • Collect cells in a 2 ml centrifuge tube • Add 1.6 μL of freshly prepared 5× FLICA reagent and mix cells by slightly flicking the tubes • Incubate tubes for 1 hour at 37° C. under 5% CO2 • Add 2 ml of 1× wash buffer to each tube and mix • Centrifuge cells at <400× g for 5 minutes at room temperature. • Carefully remove and discard supernatant, and gently vortex cell pellet to disrupt any cell-to-cell clumping. • Resuspend cell pellet in 300 ul of 1× wash buffer • Place 100 μL of each cell suspension into each of two wells of a black microtiter plate. Avoid creation of bubbles. • Read […] of each microwell using an excitation wavelength of 490 nm and an emission wavelength of 520 nm • Percent increase in caspase-3 activity manifested by an increase in fluorescence compared to the control blank is to be calculated.

[2] = tested on: pAKT; test: pAKT inhibition in human primary CTCL cells (flow cytometry); assay type: cell-based; conditions: cytokine mix stimulated, read-out: EC50, reduction of AKT phosphorylation
Method: Flow cytometry analysis of pAKT inhibition: Purified malignant T cells were isolated from donors and cultured overnight in RPMI/1% BSA. Cells were incubated with the test compound for 1.5 hr with a cytokine mix added for the final 30 minutes. The composition of the cytokine mix was 20 ng/ml IL2+5 ng/ml IL7+10 ng/ml IL15+10% FBS. AKT phosphorylation was determined by flow cytometry.

[3] = tested on: male Balb/c mice; test: Acute cigarette smoke induced cell infiltration in male Balb/c mice; assay type: in vivo, mouse; conditions: 0.3, 1, or 3 mg/kg/BID, cigarette smoke exposed mice
Excerpt: Animals (male Balb/c mice) are to be acclimatized for seven days prior to the start of the experiment. Animals are then to be randomly distributed to various groups based on their body weights. On day 1, mice is to be administered test compound or vehicle by oral/intranasal route and after 1 hr test compound administration animals are to be placed in whole body exposure box. On day 1 and d2 mice are exposed to the mainstream smoke of 6 cigarettes and of 8 cigarettes on day 3, and of 10 cigarettes on day 4. […] The total number of white blood cells is to be determined in BAL fluid and blood using a blood cell counter and adjusted to 1×10^6 cell/ml. Differential cell count is calculated manually. […] The number of each cell type among 300 white blood cells in the cell smear are to be determined and expressed as a percentage, and the number of neutrophils and macrophages in each BAL fluid are to be calculated. • Results: As depicted in FIGS. 7A and 7B, Compound A1 reduced macrophages and neutrophil infiltration into BALF thereby indicating a therapeutic role in chronic obstructive pulmonary diseases Assay 16: Ovalbumin-Induced Nasal Eosinophil and Neutrophil Accumulation in Mice

[4] = target: Pi3K γ (Homo sapiens, UniProt P48736); test: Fluorescent (HTRF) determination of PI3 kinase enzyme activity, gamma isoform; assay type: biochemical; design: purchased Millipore (assay kit); conditions: Table 1, HTRF; read-out: IC50 (nM) Pi3K γ
Excerpt: Phosphoinositide 3 kinases (PI3K) belong to a class of lipid kinases that play a critical role in the regulation of several key cellular processes. The PI3K are capable of phosphorylating the 3-hydroxy position of phosphoinositols thereby generating second messengers involved in downstream signalling events. The homogenous time resolved fluorescence (HTRF) assay allows detection of 3,4,5-triphosphate (PIP3) formed as a result of phosphorylation of phosphotidylinositol 4,5-biphosphate (PIP2) by PI3K isoforms such as α, β, γ or δ.
PI3K isoform activity for α, β, γ or δ was determined using a PI3K human HTRF™ Assay Kit (Millipore, Billerica, Mass.) with modifications. All incubations were carried out at room temperature. Briefly, 0.5 μl of 40× inhibitor (in 100% DMSO) or 100% DMSO were added to each well of a 384-well white plate (Greiner Bio-One, Monroe, N.C.) containing 14.5 μl 1× reaction buffer /PIP2 (10 mM MgCl2, 5 mM DTT, 1.38 μM PIP2) mix with or without enzyme, followed by 5 μl/well of 400 μM ATP and incubated for an additional 30 minutes. Reaction was terminated by adding 5 μl/well stop solution (Millipore, Billerica, Mass.). […] HRTF ratio was measured on a microplate reader (BMG Labtech., Germany) at an excitation wavelength of 337 nm and emission wavelengths of 665 and 615 nm with an integration time of 400 msec counting delay of 50 msec.

[5] = target: T1, PI3K gamma (Mus musculus, UniProt Q9JHG7); test: c5a induced AktS473 phosphorylation in RAW 264.7 macrophages (PI3Kγ selectivity); assay type: cell-based; conditions: read-out: Cellular IC50 PI3K gamma (c5a induced pAKT in RAW macrophages)
T1 construct: endogenous in cells; host or cells: RAW 264.7 macrophages
Method: The objective of this study was to determine the effect of Compound A1 on PI3Kγ kinase mediated c5a induced AktS473 phosphorylation in RAW 264.7 macrophages. • RAW 264.7 cells were treated with desired concentrations of the test compound for 15 min. 1 ml of 2× c5a was added such that the final concentration was 50 ng/ml and incubated for 15 min. • Media was discarded and washed with 1 ml of ice-cold 1× PBS. • 250 μl of cell lysis buffer was added and incubated on ice for 30 min. • Samples were centrifuged and supernatant was stored at −80° C. until analysis • Samples were analyzed by Western Blotting using pAKT (S473) as the primary and anti-rabbit IgG-HRP as a secondary antibody. • Intensity of the bands was determined using ImageJ 1.42q (NIH, USA) and normalized to Actin (loading control). Data was plotted using GraphPad Prism (Version 5.02).

T1 sequence (Q9JHG7 whole entry): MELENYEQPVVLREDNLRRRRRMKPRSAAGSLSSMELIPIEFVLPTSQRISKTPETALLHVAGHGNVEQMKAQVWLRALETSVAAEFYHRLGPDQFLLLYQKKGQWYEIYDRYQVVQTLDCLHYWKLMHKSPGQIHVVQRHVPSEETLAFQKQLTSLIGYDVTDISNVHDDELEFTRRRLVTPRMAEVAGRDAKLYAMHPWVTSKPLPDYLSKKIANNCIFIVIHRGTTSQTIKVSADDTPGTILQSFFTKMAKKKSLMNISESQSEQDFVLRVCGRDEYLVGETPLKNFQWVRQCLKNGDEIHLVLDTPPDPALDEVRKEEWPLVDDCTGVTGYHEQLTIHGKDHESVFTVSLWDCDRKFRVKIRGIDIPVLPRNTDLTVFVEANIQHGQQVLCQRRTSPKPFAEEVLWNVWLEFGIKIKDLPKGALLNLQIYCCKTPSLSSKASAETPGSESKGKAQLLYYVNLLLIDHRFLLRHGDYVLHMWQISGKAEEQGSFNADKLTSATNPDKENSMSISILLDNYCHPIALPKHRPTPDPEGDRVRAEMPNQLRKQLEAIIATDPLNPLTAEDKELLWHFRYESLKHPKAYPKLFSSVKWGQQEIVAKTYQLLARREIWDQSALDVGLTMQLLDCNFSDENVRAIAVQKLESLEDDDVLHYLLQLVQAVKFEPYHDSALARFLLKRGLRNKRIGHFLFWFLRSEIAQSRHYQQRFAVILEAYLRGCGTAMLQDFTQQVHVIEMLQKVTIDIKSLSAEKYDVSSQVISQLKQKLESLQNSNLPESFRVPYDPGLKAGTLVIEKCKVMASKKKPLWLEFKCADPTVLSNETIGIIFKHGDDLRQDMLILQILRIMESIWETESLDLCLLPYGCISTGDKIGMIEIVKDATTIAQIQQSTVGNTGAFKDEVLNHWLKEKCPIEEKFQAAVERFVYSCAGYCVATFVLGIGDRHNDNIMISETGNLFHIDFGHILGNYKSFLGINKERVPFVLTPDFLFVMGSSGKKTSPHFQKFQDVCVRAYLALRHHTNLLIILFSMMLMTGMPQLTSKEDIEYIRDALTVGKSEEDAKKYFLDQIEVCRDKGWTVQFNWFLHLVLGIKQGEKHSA
Chain of Pi3K γ (P48736 whole entry, canonical isoform): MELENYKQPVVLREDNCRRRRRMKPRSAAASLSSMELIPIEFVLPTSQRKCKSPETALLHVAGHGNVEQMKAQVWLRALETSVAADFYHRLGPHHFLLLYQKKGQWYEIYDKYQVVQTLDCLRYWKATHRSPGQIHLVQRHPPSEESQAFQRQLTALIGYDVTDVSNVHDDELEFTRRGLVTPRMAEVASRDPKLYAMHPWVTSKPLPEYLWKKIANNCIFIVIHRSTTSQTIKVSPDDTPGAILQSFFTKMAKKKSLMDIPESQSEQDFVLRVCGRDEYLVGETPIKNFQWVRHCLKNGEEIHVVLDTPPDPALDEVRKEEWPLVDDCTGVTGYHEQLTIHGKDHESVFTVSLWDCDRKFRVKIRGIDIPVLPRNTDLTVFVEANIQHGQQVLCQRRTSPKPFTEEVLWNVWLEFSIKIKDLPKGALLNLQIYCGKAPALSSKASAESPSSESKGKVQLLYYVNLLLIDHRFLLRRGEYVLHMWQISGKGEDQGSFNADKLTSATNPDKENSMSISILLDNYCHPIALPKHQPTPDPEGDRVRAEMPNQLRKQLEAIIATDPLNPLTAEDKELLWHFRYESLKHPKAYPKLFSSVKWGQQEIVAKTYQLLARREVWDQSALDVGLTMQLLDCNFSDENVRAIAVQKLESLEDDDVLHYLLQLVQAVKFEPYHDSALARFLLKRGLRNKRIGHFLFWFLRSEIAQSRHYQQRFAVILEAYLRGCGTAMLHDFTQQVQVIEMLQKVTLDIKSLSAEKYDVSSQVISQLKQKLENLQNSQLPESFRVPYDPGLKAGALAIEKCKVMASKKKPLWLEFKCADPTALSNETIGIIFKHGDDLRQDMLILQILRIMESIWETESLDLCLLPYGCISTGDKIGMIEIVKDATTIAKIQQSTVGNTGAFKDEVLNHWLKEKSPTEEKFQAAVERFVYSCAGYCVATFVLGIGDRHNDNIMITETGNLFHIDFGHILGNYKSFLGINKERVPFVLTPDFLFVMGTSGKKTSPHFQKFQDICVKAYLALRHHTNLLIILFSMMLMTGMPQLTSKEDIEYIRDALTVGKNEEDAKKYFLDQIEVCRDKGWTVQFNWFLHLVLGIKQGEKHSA

SMILES: CC[C@H](Nc1ncnc2[nH]cnc12)c1oc2ccccc2c(=O)c1-c1cccc(F)c1 [Compound A1, (S)-2-(1-(9H-purin-6-ylamino)propyl)-3-(3-fluorophenyl)-4H-chromen-4-one]
- caspase-3 activity [1]: dose-dependent induction
- EC50 [2]: 40 to 300 nM
- macrophages and neutrophil infiltration into BALF [3]: reduced
- IC50 [4]: 24.1 nM
- IC50 [5]: 22.3 nM
